Experimental data taken from patent publication US8455548B2, “Method of treating sensorimotor disorders with alpha-2 adrenergic receptor agonists” (Allergan, Inc., priority 2007, dated 2013).
Marks after values point to notes of the source that are not given here.

Assays:
[1] = test system: PPI disrupted by psychostimulants; experiment: Prepulse inhibition (PPI) of the startle response disrupted by psychostimulants; assay type: in vivo, Male Sprague-Dawley rats; details: for % PPI PP3: pre-pulse 3 dB above background; for % PPI PP6: pre-pulse 6 dB above background; for % PPI PP12: pre-pulse 12 dB above background
Procedure: Male Sprague-Dawley rats were treated with Drug 1 (IP) followed 20 minutes later by Drug 2 (IP or SC as indicated in the methods). Ten minutes following administration of Drug 2 (except in the case of apomorphine where animals were immediately tested post-apomorphine), rats were placed in the startle chamber and allowed 5 minutes to acclimate with 65-dB background white noise. The acclimation period was followed by a ˜15 minute test session during which time rats were presented with 40 ms 120 dB startle pulses alone or preceded 100 ms by a pre-pulse 3, 6, or 12 dB above background. These four types of active stimuli were presented in pseudorandom order along with no-stimulation trials to assess baseline activity throughout testing. An average of 20 s separated each trial type. The maximum startle magnitude was measured for every trial type. PPI for each animal was calculated as the percentage startle magnitude to the pre-pulse+pulse or no-stimulation trials relative to the pulse-alone startle magnitude. * and ** indicate differences relative to vehicle+vehicle-treated animals (P<0.05 and P<0.01, respectively).
Prepulse inhibition of the startle response. Sprague Dawley male rats (˜250 g-300 g) are used (n=8/group). Rats are administered drug 1 (vehicle, Compound A, Compound B, or clonidine) followed 20 minutes later by amphetamine (2 mg/kg, s.c.), apomorphine (0.5 mg/kg s.c), PCP (2 mg/kg i.p.) or vehicle (0.9% NaCl, s.c.). Either immediately (apomorphine) or 10 minutes (amphetamine, PCP, or vehicle) following injection of drug 2, animals are placed in the SR-Lab startle chamber (San Diego Instruments, San Diego Calif.). Each rat is acclimated to the chamber for 5 minutes with 65 dB background noise. This acclimation period is followed by a ˜15 minute PPI test session where rats are presented with 120 dB startle pulses without a pre-pulse or pulses preceded by a pre-pulse of 3, 6, or 12 dB above background noise. These active stimuli are presented in pseudorandom order along with no-sound trials, with an average of 20 sec separating each trial (range 5-27 seconds). A sensor in the chamber records the startle magnitude following all stimuli presented. % PPI represents the percentage startle magnitude to the pre-pulse+pulse or no-stim trials relative to the pulse-alone startle magnitude.
The alpha 2B compounds were administered i.p. or p.o., PCP was administered i.p., and apomorphine and amphetamine were administered s.c.

[2] = test system: amphetamine-induced stereotypy; experiment: Amphetamine-induced stereotypy (open field locomotor behavior); assay type: in vivo, C57B/6 male mice; details: for AMBULATIONS: indicative of hyperactivity; for FINE MOVEMENTS: scored 60 min post-amphetamine, indicative of stereotypy; for inhibition of amphetamine-induced stereotypy (in words): high-dose psychostimulant administration
Procedure: C57B/6 male mice were placed in an open field apparatus and allowed to habituate for 15-30 minutes. Compounds A or B were administered PO at 0, +15, or +30 minutes relative to amphetamine (8 mg/kg) administration (Compound B was also administered 15 minutes pre-amphetamine), and locomotor behavior was scored for an additional 60 minutes post-amphetamine. Amphetamine was administered IP. Locomotion was separated into “fine movements” (indicative of stereotypy) and “ambulations” (indicative of hyperactivity).
Amphetamine induced stereotypy. C57B/6 male mice were placed in an open field apparatus and allowed to habituate for 15-30 minutes. Compounds A or B were administered at 0, +15, or +30 minutes relative to amphetamine (8 mg/kg) administration (Compound B was also administered 15 minutes pre-amphetamine), and locomotor behavior was scored for an additional 60 minutes post-amphetamine. Locomotion was separated into “fine movements” (indicative of stereotypy) and “ambulations” (indicative of hyperactivity).

alpha-2A receptor = molecular target: T1, alpha-2A receptor (Homo sapiens, UniProt P08913); experiment: Alpha-adrenergic receptor activation (efficacy relative to brimonidine, e.g. RSAT); assay type: cell-based; details: lacks significant activity = less than 40% of the efficacy of brimonidine at the alpha-2A receptor subtype
T1 sequence (P08913 1-465): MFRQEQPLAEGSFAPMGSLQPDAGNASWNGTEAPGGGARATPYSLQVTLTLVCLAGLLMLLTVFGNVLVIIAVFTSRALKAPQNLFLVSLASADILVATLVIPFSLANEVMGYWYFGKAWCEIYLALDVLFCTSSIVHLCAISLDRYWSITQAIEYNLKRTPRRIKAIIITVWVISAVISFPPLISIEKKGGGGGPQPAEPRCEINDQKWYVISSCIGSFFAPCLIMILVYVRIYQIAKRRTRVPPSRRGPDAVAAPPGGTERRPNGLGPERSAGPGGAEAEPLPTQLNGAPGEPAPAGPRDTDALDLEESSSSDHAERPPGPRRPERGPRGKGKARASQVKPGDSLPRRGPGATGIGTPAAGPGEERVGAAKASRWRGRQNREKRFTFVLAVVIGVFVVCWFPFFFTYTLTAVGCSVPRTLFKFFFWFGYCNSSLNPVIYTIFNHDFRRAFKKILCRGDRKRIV
Source text: The methods of the present invention use alpha-2 agonists lacking significant activity at the alpha-2A receptor subtype. An agonist lacks significant alpha-2A receptor activity if the agonist has less than 40% of the efficacy of brimonidine at the alpha-2A receptor subtype. Compounds of the invention include, therefore, alpha-2B receptor agonists lacking significant alpha-2A activity; alpha 2B/2C receptor agonists lacking significant alpha-2A activity; and alpha-2C receptor agonists lacking significant alpha-2A activity.
Efficacy, also known as intrinsic activity, is a measure of maximal receptor activation achieved by a compound and can be determined using any accepted assay of alpha-adrenergic receptor activation, such as a cAMP or Receptor Selection and Amplification Technology (RSAT). […]
The RSAT assay measures receptor-mediated loss of contact inhibition resulting in selective proliferation of receptor-containing cells in a mixed population of confluent cells. The increase in cell number is assessed with an appropriate detectable marker gene such as beta-galactosidase, if desired, in a high throughput or ultra high throughput assay format. […]
As an example, an RSAT assay can be performed essentially as follows. […] The EC50 and maximal effect (i.e., efficacy) of each drug at each receptor is determined.

[3] = Drug 1 30 ug/kg, Drug 2 Apo (0.5 mg/kg)
[4] = Drug 1 30 ug/kg, Drug 2 PCP (2 mg/kg)
[5] = Drug 1 0.03 mg/kg, Drug 2 Amph (2 mg/kg)
[6] = compound PO at 0 min post-amphetamine (8 mg/kg IP)
[7] = compound PO at 15 min post-amphetamine (8 mg/kg IP)
[8] = compound PO at 30 min post-amphetamine (8 mg/kg IP)
[9] = Drug 1 100 ug/kg, Drug 2 Amph (2 mg/kg)
[10] = compound PO at -15 min relative to amphetamine (8 mg/kg IP)
[11] = Drug 1 10 ug/kg, Drug 2 Amph (2 mg/kg)
[12] = Drug 1 30 ug/kg, Drug 2 Amph (2 mg/kg)

Clc1cccc(Cl)c1N=C1NCCN1 [Clonidine, reference compound]
% PPI PP3 [1, 3]: 20.0 ± 10.6%
% PPI PP6 [1, 3]: 31.5 ± 11.0%
% PPI PP12 [1, 3]: 24.5%
% PPI PP3 [1, 4]: 31.7 ± 13.5%
% PPI PP6 [1, 4]: 30.1 ± 13.1%
% PPI PP12 [1, 4]: 53.7%
% PPI PP3 [1, 5]: 21.8 ± 9.1%
% PPI PP6 [1, 5]: 35.5 ± 8.6%
% PPI PP12 [1, 5]: 51.3%

OCCNC(=S)NCc1cccc(Cl)c1F [Compound A]
AMBULATIONS [2, 6]: 6338.0 ± 714.1
FINE MOVEMENTS [2, 6]: 810.1 ± 112.5^⋄
AMBULATIONS [2, 7]: 14056.6 ± 708.7
FINE MOVEMENTS [2, 7]: 1312.9 ± 205.2^⋄
AMBULATIONS [2, 8]: 7494.6 ± 612.3
FINE MOVEMENTS [2, 8]: 2581.3 ± 359.1
inhibition of amphetamine-induced stereotypy (in words) [2]: effectively inhibit stereotypy
alpha-2A receptor activity (in words) (alpha-2A receptor): lack significant alpha-2A receptor activity
% PPI PP3 [1, 3]: 38.5 ± 7.7%
% PPI PP6 [1, 3]: 53.8 ± 6.2%
% PPI PP12 [1, 3]: 58.9%
% PPI PP3 [1, 4]: 40.2 ± 7.5%
% PPI PP6 [1, 4]: 50.6 ± 5.5%
% PPI PP12 [1, 4]: 62.9%
% PPI PP3 [1, 9]: 38.6 ± 7.1%
% PPI PP6 [1, 9]: 50.2 ± 4.7%
% PPI PP12 [1, 9]: 68.5%
restoration of PPI disrupted by psychostimulants (in words) ([1]; amphetamine, apomorphine, and phencyclidine): significantly inhibited the disruption of PPI

O=C1c2ccccc2CC[C@H]1Cc1c[nH]c(=S)[nH]1 [Compound B]
AMBULATIONS [2, 6]: 9954.8 ± 1042.9
FINE MOVEMENTS [2, 6]: 736.7 ± 103.4^⋄
AMBULATIONS [2, 7]: 7226.2 ± 457.3
FINE MOVEMENTS [2, 7]: 1096.3 ± 79.2^⋄
AMBULATIONS [2, 8]: 8453.8 ± 461.7
FINE MOVEMENTS [2, 8]: 1284.8 ± 48.8^⋄
AMBULATIONS [2, 10]: 7258.8 ± 672.4
FINE MOVEMENTS [2, 10]: 937.3 ± 47.3^⋄
inhibition of amphetamine-induced stereotypy (in words) [2]: effectively inhibit stereotypy
alpha-2A receptor activity (in words) (alpha-2A receptor): lack significant alpha-2A receptor activity
% PPI PP3 [1, 11]: 28.2 ± 7.4%
% PPI PP6 [1, 11]: 30.9 ± 6.2%*
% PPI PP12 [1, 11]: 46.9%
% PPI PP3 [1, 12]: 25.3 ± 9.2%
% PPI PP6 [1, 12]: 48.6 ± 5.3%
% PPI PP12 [1, 12]: 60.0%
% PPI PP3 [1, 9]: 34.5 ± 5.7%
% PPI PP6 [1, 9]: 45.3 ± 7.4%
% PPI PP12 [1, 9]: 67.0%
